Key:
Aβ42 peptide = target: T1, Aβ42 peptide (Homo sapiens, UniProt P05067); experiment: Inhibition of Aβ42 aggregation in intact E. coli cells, thioflavin-S staining; assay type: cell-based, Escherichia coli; settings: [I] = 100 µM, E. coli cells overexpressing Aβ42
T1 construct: expressed in transfected cells; host or cells: E. coli BL21 (DE3), pET28a vector
Method: For compounds 12, 14 and 18, the inhibitory activity against Aβ42 and tau aggregation was evaluated. The anti-aggregating effect of tested compounds was monitored by a cell-based assay in intact Escherichia coli cells that overexpress either Aβ42 peptide or tau protein, which, upon expression, form insoluble inclusion bodies that were stained with thioflavin-S [42]. The percentages of inhibition towards Aβ42 and tau aggregation were determined at an inhibitor concentration of 100 µM and the obtained results are reported in Table 6. In general, these compounds show a weak anti-aggregating activity; among these, the pyridine carbamate 18 is the best inhibitor of aggregation of both Aβ42 and tau.
E. coli competent cells BL21 (DE3) were transformed with the pET28a vector (Novagen, Inc., Madison, WI, USA) carrying the DNA sequence of Aβ42. Because of the addition of the initiation codon ATG in front of both genes, the overexpressed peptide contains an additional methionine residue at its N terminus. For overnight culture preparation, an amount of 10 mL of the M9 minimal medium containing 50 μg·mL^−1 of kanamycin was inoculated with a colony of BL21 (DE3) bearing the plasmid to be expressed at 37 °C. […]
Th-S (T1892) and other chemical reagents were purchased from Sigma (St. Louis, MO, USA). […] Th-S fluorescence and absorbance were tracked using a DTX 800 plate reader Multimode Detector equipped with a Multimode Analysis Software (Beckman-Coulter, Indianapolis, IN, USA). […] A filter of 535/25 nm was also used for the absorbance determination. To normalize the Th-S fluorescence as a function of the bacterial concentration, OD600 was obtained using a Shimadzu UV-2401 PC UV–Vis spectrophotometer (Shimadzu, Japan). Note that the fluorescence normalisation was carried out considering 100% of the Th-S fluorescence of the bacterial cells expressing the peptide or protein in the absence of the drug and 0% of the Th-S fluorescence of the bacterial cells not expressing the peptide or protein. […]

equine BChE (eqBChE) = target: T2, equine BChE (eqBChE) (Equus caballus, UniProt P81908); experiment: Inhibition constant and mechanism vs. eqBChE by Dixon's method; assay type: biochemical; settings: inhibitor 200-1800 nM, acetylthiocholine 100-300 µM; for Ki: eqBChE, read-out: Ki ± SD
T2 construct: purchased Sigma-Aldrich (Milan, Italy)
Method: The recorded data were analysed with the enzyme kinetic module of SigmaPlot in order to find the best fitting model of inhibition, using the linear regression analysis. The reference kinetic models used in the regression analysis were: competitive, non-competitive, uncompetitive and mixed. Each determination was repeated five times and incorrect values were discarded to reduce the standard deviation to within the limit of 5%. In this way, the regression lines obtained have a linear regression coefficient (R^2) higher than 0.98. […] The Dixon’s plots of tested compounds are reported in the Supplementary Materials (Figures S1 and S2).
The constant and the mechanism of inhibition vs. eqBChE were determined for the compounds 12 and 14. For each compound a 500 μM stock solution was prepared in H2O/DMSO and diluted in water to prepare solutions of opportune concentrations (10, 30 and 60 μM) in order to introduce the cuvette volumes ranging from 60 to 100 μL to obtain the desired final concentrations (200–1800 nM). The maximum amount of DMSO used for the preparation of the stock solution was calculated in order to obtain a DMSO content in cuvette of <0.033%.
An amount of 3.0 mL of 0.1 M phosphate buffer (pH = 7.4), containing DTNB (0.25 mM) and eqBChE (0.083 UmL^−1), were mixed with the opportune volume of inhibitor, to obtain, in the cuvette, a final inhibitor concentration between 200 and 1800 nM. With this solution the blank was made. […]. The absorbance variations were measured at 412 nm at 25 °C between 0.5 and 1.5 min.
In order to determine the inhibition constants (Ki) and inhibition mechanism the rates of hydrolysis at three different concentrations of substrate in the presence of five different concentration of inhibitor were measured. The recorded data were analyzed by the enzyme kinetic module of SigmaPlot (version 8.02), plotting the reciprocal of rate of hydrolysis (1/v, min/μM) vs. the concentration of inhibitor (nM), according to Dixon’s method in order to find the best fitting model of inhibition, as indicated by calculated linear regression coefficient R^2.

T2 sequence (P81908 whole entry): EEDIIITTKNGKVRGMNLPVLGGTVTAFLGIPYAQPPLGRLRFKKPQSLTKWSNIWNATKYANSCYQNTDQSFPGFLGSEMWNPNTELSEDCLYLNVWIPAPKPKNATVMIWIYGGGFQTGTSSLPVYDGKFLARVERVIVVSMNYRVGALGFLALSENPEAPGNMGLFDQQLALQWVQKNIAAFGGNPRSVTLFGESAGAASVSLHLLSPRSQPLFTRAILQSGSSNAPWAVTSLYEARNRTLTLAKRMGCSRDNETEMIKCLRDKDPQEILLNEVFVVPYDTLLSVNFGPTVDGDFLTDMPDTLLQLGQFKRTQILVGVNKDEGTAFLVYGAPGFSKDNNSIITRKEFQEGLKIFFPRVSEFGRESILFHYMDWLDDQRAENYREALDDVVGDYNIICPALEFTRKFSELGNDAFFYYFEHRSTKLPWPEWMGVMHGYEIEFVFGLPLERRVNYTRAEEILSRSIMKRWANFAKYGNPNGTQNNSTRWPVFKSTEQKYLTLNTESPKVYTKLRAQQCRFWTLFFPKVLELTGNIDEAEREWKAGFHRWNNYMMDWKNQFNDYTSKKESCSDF
T1 sequence (P05067 672-713 limits assumed): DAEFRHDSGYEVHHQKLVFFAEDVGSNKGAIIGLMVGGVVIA

SMILES	inhibition at 100 µM (Aβ42 peptide)	Ki (equine BChE (eqBChE))	Mechanism of inhibition on eqBChE (equine BChE (eqBChE))
O=C(NCCCCCCNc1ccccn1)c1ccccc1 [Compound 12, N-(6-(pyridin-2-ylamino)hexyl)benzamide]	11.9%	2990 ± 190 nM	Competitive
O=C(Cc1ccc(Oc2ccccc2)cc1)NCCCCCCNc1ccccn1 [Compound 14, 2-(4-phenoxyphenyl)-N-(6-(pyridin-2-ylamino)hexyl)acetamide]	13.3%	621 ± 43 nM	Competitive
O=C(NCCCCCCNc1ccccn1)Oc1ccccc1 [Compound 18, Phenyl (6-(pyridin-2-ylamino)hexyl)carbamate]	23.1%	–	–
